Experimental findings from ChEMBL document CHEMBL6071129, “Strategies that regulate Hippo signaling pathway for novel anticancer therapeutics” (Eur J Med Chem, 2024) are described below.

Structures are written as SMILES.

Series [1] can be described thus: Antitumor activity against human MP41 cells xenografted in BALB/c nu/nu mouse assessed as tumor growth inhibition at 30 mg/kg/day, ip administered for 21 days. The format is functional. The settings on record: MP41, 504 h, time 21 day, read-out: TGI.
The nature of series [2]: Half life in ICR mouse at 15 mg/kg, po measured upto 24 hrs by LC-MS/MS analysis. The settings on record: in vivo. The format is ADME, organism-based.
Series [3] in a line: Antiproliferative activity against human 92.1 cells incubated for 72 hrs by CCK8 assay. The format is functional, cell-based. The settings on record: 92-1, 72 h.
Series [4] is described as follows: Antiproliferative activity against human MP41 cells incubated for 72 hrs by CCK8 assay. The format is functional, cell-based. The settings on record: MP41, 72 h. (In general: Tetrazolium assays rely on reduction of a dye to a coloured formazan, in cell work by metabolically active cells.)
The test system of the next series is HCT-116. Nature of the series: Antiproliferative activity against human HCT-116 cells incubated for 72 hrs. Format: functional, cell-based. The conditions noted are these: HCT-116, 72 h.
Series [5] in a line: Inhibition of YAP (unknown origin) to TEAD4 (unknown origin) protein protein interaction. Details: species or system Homo sapiens.
Series [6] in a line: Inhibition of TEAD in HEK293 cells expressing YAP. Format: cell-based, Homo sapiens.
In series [7] the target is Transcriptional enhancer factor TEF-3 (Homo sapiens, UniProt Q15561). As to the kind of experiment: Inhibition of TEAD4 (unknown origin) autopalmitoylation.
Chain of Transcriptional enhancer factor TEF-3 (Q15561 whole entry): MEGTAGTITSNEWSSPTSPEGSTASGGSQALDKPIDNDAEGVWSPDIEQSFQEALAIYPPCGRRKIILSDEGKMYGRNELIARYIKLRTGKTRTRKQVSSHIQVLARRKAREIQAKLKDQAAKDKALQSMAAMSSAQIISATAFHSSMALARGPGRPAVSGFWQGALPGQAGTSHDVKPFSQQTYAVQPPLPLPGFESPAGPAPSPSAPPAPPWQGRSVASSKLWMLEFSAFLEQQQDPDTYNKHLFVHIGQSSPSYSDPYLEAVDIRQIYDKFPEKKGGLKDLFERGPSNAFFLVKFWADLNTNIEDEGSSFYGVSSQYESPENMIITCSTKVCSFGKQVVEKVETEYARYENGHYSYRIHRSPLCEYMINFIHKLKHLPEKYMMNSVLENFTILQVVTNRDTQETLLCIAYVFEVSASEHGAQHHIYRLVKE
A further series relates to BXPC-3. As to the kind of experiment: Antiproliferative activity against human BXPC-3 cells incubated for 48 hrs by MTT assay. Format: functional, cell-based. The conditions noted are these: BXPC-3, 48 h.
In the next series the test system is PANC-1. As to the kind of experiment: Antiproliferative activity against human PANC-1 cells incubated for 48 hrs by MTT assay. Format: functional, cell-based. The conditions noted are these: PANC-1, 48 h.
For another series, the system named is ASPC1. Nature of the series: Antiproliferative activity against human ASPC1 cells incubated for 48 hrs by MTT assay. The format is functional, cell-based. The settings on record: ASPC1, 48 h.
The subject of another series is SW1990. As to the kind of experiment: Antiproliferative activity against human SW1990 cells incubated for 48 hrs by MTT assay. Format: functional, cell-based. The settings on record: SW1990, 48 h.
Another series concerns MIA PaCa-2. As to the kind of experiment: Antiproliferative activity against human MIA PaCa-2 cells incubated for 48 hrs by MTT assay. Format: functional, cell-based. The conditions noted are these: MIA PaCa-2, 48 h.
For the next series, the system named is SU.86.86. Nature of the series: Antiproliferative activity against human SU-86-86 cells incubated for 48 hrs by MTT assay. The settings on record: SU.86.86, 48 h. Format: functional, cell-based.
Series [8] can be described thus: Antitumor activity against human MIA PaCa2 cells xenografted in BALB/c mouse assessed as tumor growth inhibition at 5 mg/kg, ip administered for every 2 days. The conditions noted are these: 48 h, time 2 day, read-out: TGI. The format is functional. For orientation: Xenograft models place foreign cells or tissue in a host animal.
A short description of series [9]: Inhibition of YAP (unknown origin)/TAZ-TEAD interaction (unknown origin). Details: species or system Homo sapiens.
The subject of another series is MCF-10A. Nature of the series: Growth inhibition of human MCF-10A cells incubated for 48 hrs. The format is functional.
Series [10] in a line: Inhibition of GST-tagged human TEAD1 to human His6-tagged YAP2 protein-protein interaction incubated for 2 hrs by AlphaLisa method. A general note: Alpha assays give light when donor and acceptor beads are brought close together.
Series [11] is described as follows: Inhibition of TAZ expressed in HEK293 cells incubated for 24 hrs by dual luciferase reporter assay. The settings on record: Homo sapiens, HEK293, 24 h. The format is cell-based.
The test system of series [12] is SCC-9. Nature of the series: Antitumor activity against human SCC9 cells xenografted in nude mouse assessed as tumor growth inhibition at 50 mg/kg, po administered every other day. The format is functional. The conditions noted are these: read-out: TGI.
The subject of series [13] is SCC-9. Nature of the series: Antiproliferative activity against human SCC-9 cells incubated for 72 hrs by MTT assay. The format is functional, cell-based. The conditions noted are these: SCC-9, 72 h.
The test system of a further series is SCC-15. Nature of the series: Antiproliferative activity against human SCC-15 cells incubated for 72 hrs by MTT assay. Format: functional, cell-based. The settings on record: SCC-15, 72 h.
Another series relates to HSC-3. Nature of the series: Antiproliferative activity against human HSC-3 cells incubated for 72 hrs by MTT assay. Format: functional, cell-based. The settings on record: HSC-3, 72 h.
Series [14] deals with Lewis lung carcinoma cell line. Nature of the series: Antiproliferative activity against mouse Lewis lung carcinoma cell line incubated for 48 hrs by SRB assay. The format is functional, cell-based.
The test system of a further series is NCI-H460. As to the kind of experiment: Antiproliferative activity against human NCI-H460 cells incubated for 48 hrs by SRB assay. Format: functional, cell-based. The settings on record: NCI-H460, 48 h.
For a further series, the system named is NCI-H1975. Nature of the series: Antiproliferative activity against human NCI-H1975 cells incubated for 48 hrs by SRB assay. The format is functional, cell-based. The conditions noted are these: NCI-H1975, 48 h.

As usually defined, the half-life is how long it takes for the measured level to halve. A lower half-life goes with rapid decline. One may read the IC50 as the concentration at which inhibition is half-maximal. On to `CN1CCCC1CN1CCn2cc(-c3ccccc3)nc2[C@@H]1CC1CCCCC1` (stereo partly specified), for which, in [1], the inhibition in vivo at 30 mg/kg/day came to 107%. The compound further gave a half-life in series [2] of 144 min. For the same compound, the results for the 50% inhibitory concentration (IC50) in [3] and in series [4] were 10.4 µM and 5.1 µM, respectively.
Take `CCOc1ccc(CN2CCCC(C(=O)c3cccc(C(F)(F)F)c3)C2)cc1CO` (stereo unspecified): the IC50 in the series on HCT-116 stood at 27.9 µM; in series [5], 21.4 µM; in series [6], 2100 nM; in [7], 1300 nM.
As to `COc1ccc(C(=O)O[C@H]2C=COC=C3[C@@H](O)[C@]45S[C@@H](C(=O)N4[C@@H]32)N(C)C5=O)cc1Oc1cc(C=O)ccc1O`, the IC50 was less than 2000 nM with BXPC-3; less than 2000 nM in the series on PANC-1; less than 2000 nM with ASPC1; less than 4 µM in the series with SW1990; less than 2000 nM with MIA PaCa-2; less than 4 µM in the series with SU.86.86. Besides, the inhibition in vivo at 5 mg/kg in series [8] was determined as 71%.
The GI50 is the concentration giving 50% growth inhibition. Read a high GI50 as lower sensitivity of the cells. `COc1ccc(CCNC(=O)C2=CS(=O)(=O)c3ccccc32)cc1` showed an IC50 in [9] of 12.7 µM. In addition, in the series on MCF-10A, it took 3.2 µM to inhibit growth by half (GI50).
Consider `COc1cc(/C=N/N(CCO)C2=NS(=O)(=O)c3ccccc32)ccc1O`, for which, in [10], the IC50 was found to be 25.4 µM.
For the compound `CC(C)[C@H](C(=O)Nc1ccc(C(=O)NO)cc1)c1ccccc1` [AR-42], the IC50 in [11] is less than 300 nM; in the series on SCC-9 [13] it was 240 nM; in the series on SCC-15, 350 nM; in the series with HSC-3, 800 nM. Also, the inhibition in vivo at 50 mg/kg in the series with SCC-9 [12] is 85%.
Regarding `C[C@H]1[C@H](OC(=O)CCC(=O)O)O[C@@H]2O[C@@]3(C)CC[C@H]4[C@H](C)CC[C@@H]1[C@@]24OO3` [ARTESUNATE], the IC50 in series [14] is 11.1 µM; with NCI-H460 it was 16.1 µM; in the series on NCI-H1975 it was 4.02 µM.
